Assays:
Test in all cases: relative viability (nuclei count vs DMSO), 5 days (fraction); higher = more cells survive
A-427 = system: A-427
Procedure, shortened: (§1)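 Nuclei were stained with Hoechst during a one-step fixation (final 0.05% Triton X-100, 1% formaldehyde, 1 ug/ml Hoechst) carried out 5 days after dosing, then counted on 4× images. The cells, lung cancer lines in 1536-well plates, had been dosed by pin tool the day after seeding with one drug alone or a fixed anchor-drug dose plus five library-drug doses (not always all listed) in √10 steps. Relative viability is the nuclei count in treated wells divided by that in vehicle wells, and each value is the median of duplicate plates.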

HCC-366 = system: HCC-366
Procedure, shortened: as §1

HCC-827 = system: HCC-827
Procedure, shortened: as §1

LC-2-ad = system: LC-2-ad
Procedure, shortened: as §1

LCLC-103H = system: LCLC-103H
Procedure, shortened: as §1

NCI-H1355 = system: NCI-H1355
Procedure, shortened: as §1

NCI-H1734 = system: NCI-H1734
Procedure, shortened: as §1

NCI-H1755 = system: NCI-H1755
Procedure, shortened: as §1

NCI-H1792 = system: NCI-H1792
Procedure, shortened: as §1

NCI-H1915 = system: NCI-H1915
Procedure, shortened: as §1

NCI-H1975 = system: NCI-H1975
Procedure, shortened: as §1

NCI-H1993 = system: NCI-H1993
Procedure, shortened: as §1

Cc1cn(-c2cc(NC(=O)c3ccc(C)c(Nc4nccc(-c5cccnc5)n4)c3)cc(C(F)(F)F)c2)cn1 [Nilotinib] + CC(=O)c1c(C)c2cnc(Nc3ccc(N4CCNCC4)cn3)nc2n(C2CCCC2)c1=O [Palbociclib] (partner 0.5 µM)
relative viability (A-427; first compound 0.001 µM): 0.51
relative viability (A-427; first compound 0.003162 µM): 0.493
relative viability (A-427; first compound 0.01 µM): 0.524
relative viability (A-427; first compound 0.03162 µM): 0.552
relative viability (A-427; first compound 0.1 µM): 0.466
relative viability (HCC-366; first compound 0.001 µM): 0.244
relative viability (HCC-366; first compound 0.003162 µM): 0.379
relative viability (HCC-366; first compound 0.01 µM): 0.396
relative viability (HCC-366; first compound 0.03162 µM): 0.36
relative viability (HCC-366; first compound 0.1 µM): 0.303
relative viability (HCC-827; first compound 0.001 µM): 0.56
relative viability (HCC-827; first compound 0.003162 µM): 0.451
relative viability (HCC-827; first compound 0.03162 µM): 0.435
relative viability (HCC-827; first compound 0.1 µM): 0.469
relative viability (LC-2-ad; first compound 0.001 µM): 0.535
relative viability (LC-2-ad; first compound 0.003162 µM): 0.605
relative viability (LC-2-ad; first compound 0.01 µM): 0.561
relative viability (LC-2-ad; first compound 0.03162 µM): 0.466
relative viability (LC-2-ad; first compound 0.1 µM): 0.502
relative viability (LCLC-103H; first compound 0.001 µM): 0.425
relative viability (LCLC-103H; first compound 0.003162 µM): 0.403
relative viability (LCLC-103H; first compound 0.01 µM): 0.46
relative viability (LCLC-103H; first compound 0.03162 µM): 0.489
relative viability (LCLC-103H; first compound 0.1 µM): 0.44
relative viability (NCI-H1355; first compound 0.001 µM): 0.423
relative viability (NCI-H1355; first compound 0.003162 µM): 0.457
relative viability (NCI-H1355; first compound 0.01 µM): 0.486
relative viability (NCI-H1355; first compound 0.03162 µM): 0.494
relative viability (NCI-H1355; first compound 0.1 µM): 0.468
relative viability (NCI-H1734; first compound 0.001 µM): 0.333
relative viability (NCI-H1734; first compound 0.003162 µM): 0.36
relative viability (NCI-H1734; first compound 0.01 µM): 0.372
relative viability (NCI-H1734; first compound 0.03162 µM): 0.312
relative viability (NCI-H1734; first compound 0.1 µM): 0.317
relative viability (NCI-H1755; first compound 0.001 µM): 0.451
relative viability (NCI-H1755; first compound 0.003162 µM): 0.453
relative viability (NCI-H1755; first compound 0.01 µM): 0.436
relative viability (NCI-H1755; first compound 0.03162 µM): 0.468
relative viability (NCI-H1755; first compound 0.1 µM): 0.368
relative viability (NCI-H1792; first compound 0.001 µM): 0.582
relative viability (NCI-H1792; first compound 0.003162 µM): 0.684
relative viability (NCI-H1792; first compound 0.01 µM): 0.732
relative viability (NCI-H1792; first compound 0.1 µM): 0.89
relative viability (NCI-H1915; first compound 0.001 µM): 0.492
relative viability (NCI-H1915; first compound 0.003162 µM): 0.535
relative viability (NCI-H1915; first compound 0.01 µM): 0.53
relative viability (NCI-H1915; first compound 0.03162 µM): 0.502
relative viability (NCI-H1915; first compound 0.1 µM): 0.475
relative viability (NCI-H1975; first compound 0.001 µM): 0.498
relative viability (NCI-H1975; first compound 0.003162 µM): 0.608
relative viability (NCI-H1975; first compound 0.01 µM): 0.653
relative viability (NCI-H1975; first compound 0.03162 µM): 0.345
relative viability (NCI-H1975; first compound 0.1 µM): 0.226
relative viability (NCI-H1993; first compound 0.001 µM): 0.688
relative viability (NCI-H1993; first compound 0.003162 µM): 0.705
relative viability (NCI-H1993; first compound 0.01 µM): 0.762
